Literature values as cited in patent US20120245518A1, “PHARMACEUTICAL COMPOSITION FOR THE TREATMENT OF BLADDER DISORDERS” (Ritcher Gedeon NYRT., priority 2009, published 2012).

System: matrix metalloproteinases, particularly the MMP-9

sodium hyaluronate
inhibitory effect on matrix metalloproteinases, particularly MMP-9: does not show the latter effect
